According to US11219625B2, “Inhibitors of N-linked glycosylation and methods using same” (YALE UNIVERSITY, priority 2015, dated 2022):

Key:
Format in all cases: cell-based
PC9 cells [1] = experiment: MTT proliferation assay, PC9; conditions: PC9, 1 μM tunicamycin
Protocol: (§1) FIGS. 4A-4H illustrate the finding that NGI-1 blocks RTK driven proliferation. FIG. 4A illustrates western blot analysis of EGFR phosphorylation (Y1173) and gel mobility in PC9 (EGFR-mutant) and A549 (k-ras mutant) NSCLC cells after 10 μM NGI-1 treatment for 24 h. […] Actin expression was used as a control for protein loading. FIG. 4B illustrates MTT assays results of PC9 following treatment with 10 μM NGI-1 or 1 μM tunicamycin for a total of 5 d. Relative proliferation id reported in fold increase from day 0. FIG. 4C illustrates MTT assays results of A549 following treatment with 10 μM NGI-1 or 1 μM tunicamycin for a total of 5 d. Relative proliferation id reported in fold increase from day 0. FIG. 4D illustrates protein phosphorylation profiles of PC9 cells analyzed by phospho-protein array to assess the response of PC9 to 10 μM NGI-1 for 24 h. FIG. 4E illustrates protein phosphorylation profiles of A549 cells analyzed by phospho-protein array to assess the response of A549 to 10 μM NGI-1 for 24 h. […]
(§2) Growth rates were determined by CellTiter 96 NonRadioactive Cell Proliferation Assay (Promega; Madison, Wis. USA) according to the manufacturer's directions. […] Cell numbers were estimated after 0, 3, and 5 days by adding MTT [(3-(4,5-Dimethylthiazol-2-yl)-2,5-diphenyltetrazolium bromide] reagent to the wells 4 hours before taking the spectrophotometric reading (absorbance at 570 nm).

[2] = tested on: lipid linked oligosaccharides (LLOs); experiment: FACE analysis of lipid linked oligosaccharides; conditions: FACE, FIG. 2B
Protocol: Fluorophore assisted carbohydrate electrophoresis (FACE) was performed as previously described (Gao, et al., Glycobiology 2002, 12, 353-360; Gao, et al., J Biol Chem 2005, 280, 17901-17909). Control (Ac-Gln-Tyr-Thr-CONH2) and acceptor (Ac-Asn-Tyr-Thr-CONH2) peptides were used for permeabilized cell experiments. Metabolic labeling of Hela cells, transfection of prosaposin (pSAP) and steroid hormone binding globulin (SHBG) vectors, and knockdown of SIT3A and STT3B to monitor N-linked glycosylation knockdown were performed as described (Shrimal, et al., J Cell Biol 2013, 201, 81-95). Western blot analysis was performed as previously described (Bennett, et al., Transl Oncol 2013, 6, 382-391). The following primary antibodies were used: rabbit anti-EGFR (sc-03; Santa Cruz Biotechnology; 1:1000), rabbit anti-phospho (Tyr1173) EGF Receptor (Cell Signaling; 1:1000), rabbit anti-p21 Waf1/Cip1 (12D1; Cell Signaling; 1:1000), rabbit anti-Cyclin D1 (Cell Signaling; 1:1000), mouse anti-β-Actin (8H10D10; Cell Signaling; 1:1000). For phospho-protein array analysis, PC9 and A549 cells were cultured in 6-well plates in serum-containing medium and treated with or without 10 μM NGI-1 for 24 hours. […]

PC9 cells [3] = experiment: Apoptosis by flow cytometry (Annexin-V, 7-AAD), PC9; conditions: PC9, NGI-1 10 μM for 2 or 5 days, or Tn 1 μM
Protocol: (§3) Analysis of apoptosis susceptibility in A549 and PC9 NSCLC cell lines followed treatment with NGI-1 10 μM or Tn 1 μM for 2 days was done by flow cytometry after staining the cells with Annexin-V (early apoptosis) and 7-AAD (viability dye). […] FIG. 9C: Western blot of BIP protein for A549 and PC9 cells after treatment with 10 μM NGI-1 for 6, 12 or 24 h. The expression of GAPDH was used as a loading control.

A549 cells [4] = experiment: Apoptosis by flow cytometry (Annexin-V, 7-AAD), A549; conditions: A549, NGI-1 10 μM for 2 or 5 days, or Tn 1 μM
Protocol: as §3

A549 cells [5] = experiment: MTT proliferation assay, A549; conditions: A549, 10 μM NGI-1 or 1 μM tunicamycin
Protocol: as §1, §2

tunicamycin [reference compound]
effect on proliferation, MTT (PC9 cells [1]): immediately blocks proliferation in both cell lines
effect on LLO production [2]: blocked all LLO production
induction of apoptosis (PC9 cells [3]): apoptosis was activated
induction of apoptosis (A549 cells [4]): apoptosis was activated
effect on proliferation, MTT (A549 cells [5]): immediately blocks proliferation in both cell lines
